The values below come from US20240299385A1 (ReWind Therapeutics NV, priority 2021, published 2024).

As a reminder, the IC50 is the point on the concentration scale where inhibition reaches its midpoint.

T1 sequence (Q13304 whole entry): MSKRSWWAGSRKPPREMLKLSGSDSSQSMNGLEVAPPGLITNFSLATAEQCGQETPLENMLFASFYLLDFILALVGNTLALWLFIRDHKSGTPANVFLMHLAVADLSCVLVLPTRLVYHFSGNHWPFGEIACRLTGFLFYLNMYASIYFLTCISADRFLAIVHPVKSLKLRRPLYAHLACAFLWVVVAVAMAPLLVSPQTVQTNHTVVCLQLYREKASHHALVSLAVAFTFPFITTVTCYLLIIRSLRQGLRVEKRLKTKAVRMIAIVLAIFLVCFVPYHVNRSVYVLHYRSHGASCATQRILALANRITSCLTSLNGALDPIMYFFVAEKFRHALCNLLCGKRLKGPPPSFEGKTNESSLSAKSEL

This assay addresses T1, human GPR17 receptor (Homo sapiens, UniProt Q13304).
T1 construct: host or cells: HEK-293
As to the kind of experiment: Calcium mobilization functional assay (Fluo-8, FLIPR TETRA) in HEK-293 hGPR17 (Gα-q assay). In kind it is cell-based. The note with it: antagonism of MDL29,951 (~EC80) induced Ca2+ signal; cell line (HEK-293 hGPR17 or HEK-293 Suchi5 hGPR17) not given. The essentials: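 Fluo-8-loaded HEK-293 hGPR17 cells (60 min dye loading, room temperature) were preincubated with compound for twenty minutes, then challenged with agonist MDL29,951 at ~EC80, 500 nM. Intracellular calcium release via Gα-q was recorded as FLIPR fluorescence for a further 2 minutes; compounds tested in duplicate.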
Regarding `Cc1cccnc1-c1cc(S(=O)(=O)Nc2cc(F)c(C(F)(F)F)cc2F)c[nH]1` [Cpd 155, N-[2,5-difluoro-4-(trifluoromethyl)phenyl]-5-(3-methyl-2-pyridyl)-1H-pyrrole-3-sulfonamide], the 50% inhibitory concentration (IC50) is < 0.5 µM.

For the compound `Cn1ccnc1-c1cc(S(=O)(=O)Nc2cc(F)c(C(F)(F)F)cc2F)c[nH]1` [Cpd 156, N-[2,5-difluoro-4-(trifluoromethyl)phenyl]-5-(1-methylimidazol-2-yl)-1H-pyrrole-3-sulfonamide], the IC50 was in the range of 0.5 to 5 µM.

For `O=S(=O)(Nc1ccc(OC(F)(F)F)cc1F)c1c[nH]c(-c2ccccn2)c1` [Cpd 157, N-[2-fluoro-4-(trifluoromethoxy)phenyl]-5-(2-pyridyl)-1H-pyrrole-3-sulfonamide], the IC50 lay within 0.5 to 5 µM.

Consider `O=S(=O)(Nc1cc(F)c(C(F)(F)F)cc1F)c1c[nH]cc1Cc1ccccc1` [Cpd 158, 4-benzyl-N-[2,5-difluoro-4-(trifluoromethyl)phenyl]-1H-pyrrole-3-sulfonamide], for which the IC50 lay within 0.5 to 5 µM.

Turning to `O=S(=O)(Nc1ccc(F)cc1F)c1c[nH]c(-c2ncccc2F)c1` [Cpd 160, N-(2,4-difluorophenyl)-5-(3-fluoro-2-pyridyl)-1H-pyrrole-3-sulfonamide], the half-maximal inhibitory concentration (IC50) fell in the range of 5 to 50 µM.

On to `COc1cc(C#N)ccc1NS(=O)(=O)c1c[nH]cc1Cc1ccccc1` [Cpd 161, 4-benzyl-N-(4-cyano-2-methoxy-phenyl)-1H-pyrrole-3-sulfonamide], for which the IC50 was in the range of 5 to 50 µM.

For `N#Cc1ccc(NS(=O)(=O)c2c[nH]cc2Cc2ccccc2)cc1` [Cpd 162, 4-benzyl-N-(4-cyanophenyl)-1H-pyrrole-3-sulfonamide], the half-inhibitory concentration (IC50) lay within 0.5 to 5 µM.

Regarding `O=S(=O)(Nc1ccccc1F)c1c[nH]cc1Cc1ccccc1` [Cpd 163, 4-benzyl-N-(2-fluorophenyl)-1H-pyrrole-3-sulfonamide], the 50% inhibitory concentration (IC50) is 5 to 50 µM.

`O=S(=O)(Nc1ncc(Cl)cc1F)c1c[nH]c(-c2ccccn2)c1` [Cpd 164, N-(5-chloro-3-fluoro-2-pyridyl)-5-(2-pyridyl)-1H-pyrrole-3-sulfonamide]: the IC50 lay within 0.5 to 5 µM.

In the case of `COc1cc(CC#N)ccc1NS(=O)(=O)c1c[nH]c(-c2ccccc2)c1` [Cpd 165, N-[4-(cyanomethyl)-2-methoxy-phenyl]-5-phenyl-1H-pyrrole-3-sulfonamide], the half-inhibitory concentration (IC50) was in the range of 0.5 to 5 µM.

Consider `N#Cc1cnc(NS(=O)(=O)c2c[nH]c(-c3ccccc3)c2)c(F)c1` [Cpd 166, N-(5-cyano-3-fluoro-2-pyridyl)-5-phenyl-1H-pyrrole-3-sulfonamide], for which the half-maximal inhibitory concentration (IC50) was 0.5 to 5 µM.

On to `COc1cc(Br)cnc1NS(=O)(=O)c1c[nH]c(-c2ccccn2)c1` [Cpd 167, N-(5-bromo-3-methoxy-2-pyridyl)-5-(2-pyridyl)-1H-pyrrole-3-sulfonamide], for which the IC50 lay within 0.5 to 5 µM.

Take `O=S(=O)(Nc1ncc(Br)cc1F)c1c[nH]c(-c2ccccc2)c1` [Cpd 168, N-(5-bromo-3-fluoro-2-pyridyl)-5-phenyl-1H-pyrrole-3-sulfonamide]: the IC50 lay within 0.5 to 5 µM.

With `N#CCc1cnc(NS(=O)(=O)c2c[nH]c(-c3ccccc3)c2)c(F)c1` [Cpd 169, N-[5-(cyanomethyl)-3-fluoro-2-pyridyl]-5-phenyl-1H-pyrrole-3-sulfonamide], the IC50 was in the range of 5 to 50 µM.

As for `COc1cccnc1-c1cc(S(=O)(=O)Nc2cc(F)c(C(F)(F)F)cc2F)c[nH]1` [Cpd 170, N-[2,5-difluoro-4-(trifluoromethyl)phenyl]-5-(3-methoxy-2-pyridyl)-1H-pyrrole-3-sulfonamide], the IC50 lay within 0.5 to 5 µM.

Regarding `N#Cc1ccc(NS(=O)(=O)c2c[nH]cc2Cc2cccc(F)c2)c(F)c1` [Cpd 171, N-(4-cyano-2-fluoro-phenyl)-4-[(3-fluorophenyl)methyl]-1H-pyrrole-3-sulfonamide], the half-maximal inhibitory concentration (IC50) is < 0.5 µM.

In the case of `Cc1cc(F)c(NS(=O)(=O)c2c[nH]c(-c3ccccn3)c2)cc1F` [Cpd 173, N-(2,5-difluoro-4-methyl-phenyl)-5-(2-pyridyl)-1H-pyrrole-3-sulfonamide], the half-inhibitory concentration (IC50) is < 0.5 µM.

For the compound `O=S(=O)(Nc1cc(F)c(-c2ccccc2)cc1F)c1c[nH]c(-c2ccccn2)c1` [Cpd 174, N-(2,5-difluoro-4-phenyl-phenyl)-5-(2-pyridyl)-1H-pyrrole-3-sulfonamide], the concentration for half-maximal inhibition (IC50) fell in the range of 5 to 50 µM.

Regarding `COc1cc(C(F)(F)F)cnc1NS(=O)(=O)c1c[nH]c(-c2ccccc2)c1` [Cpd 175, N-[3-methoxy-5-(trifluoromethyl)-2-pyridyl]-5-phenyl-1H-pyrrole-3-sulfonamide], the IC50 fell in the range of 0.5 to 5 µM.

Turning to `O=S(=O)(Nc1ncc(C(F)(F)F)cc1F)c1c[nH]c(-c2ccccc2F)c1` [Cpd 176, 5-(2-fluorophenyl)-N-[3-fluoro-5-(trifluoromethyl)-2-pyridyl]-1H-pyrrole-3-sulfonamide], the 50% inhibitory concentration (IC50) is 0.5 to 5 µM.

As for `N#Cc1ccc(NS(=O)(=O)c2c[nH]cc2Cc2ccc(F)cc2)c(F)c1` [Cpd 177, N-(4-cyano-2-fluoro-phenyl)-4-[(4-fluorophenyl)methyl]-1H-pyrrole-3-sulfonamide], the IC50 is < 0.5 µM.

For the compound `O=S(=O)(Nc1cc(F)c(F)cc1F)c1c[nH]c(-c2ccccn2)c1` [Cpd 179, 5-(2-pyridyl)-N-(2,4,5-trifluorophenyl)-1H-pyrrole-3-sulfonamide], the IC50 lay in the range of 0.5 to 5 µM.

Turning to `COc1cccc(F)c1-c1cc(S(=O)(=O)Nc2cc(F)c(C(F)(F)F)cc2F)c[nH]1` [Cpd 180, N-[2,5-difluoro-4-(trifluoromethyl)phenyl]-5-(2-fluoro-6-methoxy-phenyl)-1H-pyrrole-3-sulfonamide], the IC50 was in the range of 0.5 to 5 µM.

Turning to `O=S(=O)(Nc1ccc(Cl)cc1F)c1c[nH]c(-c2ccccn2)c1` [Cpd 181, N-(4-chloro-2-fluoro-phenyl)-5-(2-pyridyl)-1H-pyrrole-3-sulfonamide], the concentration for half-maximal inhibition (IC50) lay within 0.5 to 5 µM.

With `N#Cc1ccc(NS(=O)(=O)c2c[nH]cc2Cc2ccccc2F)c(F)c1` [Cpd 182, N-(4-cyano-2-fluoro-phenyl)-4-[(2-fluorophenyl)methyl]-1H-pyrrole-3-sulfonamide], the half-maximal inhibitory concentration (IC50) was 0.5 to 5 µM.

In the case of `COc1cc(F)c(NS(=O)(=O)c2c[nH]c(-c3ccccn3)c2)cc1F` [Cpd 183, N-(2,5-difluoro-4-methoxy-phenyl)-5-(2-pyridyl)-1H-pyrrole-3-sulfonamide], the IC50 was in the range of 0.5 to 5 µM.

For the compound `N#Cc1ccc(NS(=O)(=O)c2c[nH]cc2Cc2cccnc2)c(F)c1` [Cpd 184, N-(4-cyano-2-fluoro-phenyl)-4-(3-pyridylmethyl)-1H-pyrrole-3-sulfonamide], the IC50 lay in the range of 0.5 to 5 µM.

Regarding `C#Cc1cc(F)c(NS(=O)(=O)c2c[nH]c(-c3ccccn3)c2)cc1F` [Cpd 185, N-(4-ethynyl-2,5-difluoro-phenyl)-5-(2-pyridyl)-1H-pyrrole-3-sulfonamide], the IC50 lay within 0.5 to 5 µM.

Regarding `O=S(=O)(Nc1ccc(C(F)(F)F)nc1F)c1c[nH]c(-c2ccccc2)c1` [Cpd 186, N-[2-fluoro-6-(trifluoromethyl)-3-pyridyl]-5-phenyl-1H-pyrrole-3-sulfonamide], the IC50 lay in the range of 0.5 to 5 µM.

Turning to `O=S(=O)(Nc1cc2cccnc2cc1F)c1c[nH]c(-c2ccccc2)c1` [Cpd 187, N-(7-fluoro-6-quinolyl)-5-phenyl-1H-pyrrole-3-sulfonamide], the IC50 lay in the range of 0.5 to 5 µM.

As for `O=S(=O)(Nc1ccc(OC(F)F)nc1F)c1c[nH]c(-c2ccccc2)c1` [Cpd 188, N-[6-(difluoromethoxy)-2-fluoro-3-pyridyl]-5-phenyl-1H-pyrrole-3-sulfonamide], the IC50 is 0.5 to 5 µM.

Regarding `O=S(=O)(Nc1cc(F)c(C(F)(F)F)cc1F)c1c[nH]c(-c2ccc(F)cn2)c1` [Cpd 189, N-[2,5-difluoro-4-(trifluoromethyl)phenyl]-5-(5-fluoro-2-pyridyl)-1H-pyrrole-3-sulfonamide], the IC50 fell in the range of 0.5 to 5 µM.

With `O=S(=O)(Nc1ccc(C(F)(F)F)c(F)c1)c1c[nH]c(-c2ccccn2)c1` [Cpd 190, N-[3-fluoro-4-(trifluoromethyl)phenyl]-5-(2-pyridyl)-1H-pyrrole-3-sulfonamide], the half-maximal inhibitory concentration (IC50) is 0.5 to 5 µM.

With `COc1ncccc1-c1cc(S(=O)(=O)Nc2cc(F)c(C(F)(F)F)cc2F)c[nH]1` [Cpd 191, N-[2,5-difluoro-4-(trifluoromethyl)phenyl]-5-(2-methoxy-3-pyridyl)-1H-pyrrole-3-sulfonamide], the concentration for half-maximal inhibition (IC50) is < 0.5 µM.

Take `O=S(=O)(Nc1ncc(Cl)cc1F)c1c[nH]cc1Cc1ccccc1` [Cpd 192, 4-benzyl-N-(5-chloro-3-fluoro-2-pyridyl)-1H-pyrrole-3-sulfonamide]: the IC50 was in the range of 5 to 50 µM.

Regarding `O=S(=O)(Nc1cc(F)c(Br)cc1F)c1c[nH]cc1Cc1ccccc1` [Cpd 193, 4-benzyl-N-(4-bromo-2,5-difluoro-phenyl)-1H-pyrrole-3-sulfonamide], the half-maximal inhibitory concentration (IC50) was in the range of 0.5 to 5 µM.

For the compound `N#Cc1ccc(NS(=O)(=O)c2c[nH]cc2Cc2ccccc2Cl)c(F)c1` [Cpd 194, 4-[(2-chlorophenyl)methyl]-N-(4-cyano-2-fluoro-phenyl)-1H-pyrrole-3-sulfonamide], the IC50 lay within 0.5 to 5 µM.

`N#Cc1ccc(NS(=O)(=O)c2c[nH]cc2C(=O)c2ccccc2)c(F)c1` [Cpd 195, 4-benzoyl-N-(4-cyano-2-fluoro-phenyl)-1H-pyrrole-3-sulfonamide]: the IC50 lay in the range of 0.5 to 5 µM.

For `COc1ccc(F)c(NS(=O)(=O)c2c[nH]c(-c3ccccn3)c2)c1` [Cpd 196, N-(2-fluoro-5-methoxy-phenyl)-5-(2-pyridyl)-1H-pyrrole-3-sulfonamide], the IC50 is 5 to 50 µM.

Regarding `O=S(=O)(Nc1cc(F)c(C(F)(F)F)cc1F)c1c[nH]c(-c2ccc(Cl)cn2)c1` [Cpd 197, 5-(5-chloro-2-pyridyl)-N-[2,5-difluoro-4-(trifluoromethyl)phenyl]-1H-pyrrole-3-sulfonamide], the IC50 was in the range of 5 to 50 µM.

Consider `COc1cc(C(F)(F)F)cnc1NS(=O)(=O)c1c[nH]c(-c2ccccn2)c1` [Cpd 198, N-[3-methoxy-5-(trifluoromethyl)-2-pyridyl]-5-(2-pyridyl)-1H-pyrrole-3-sulfonamide], for which the half-maximal inhibitory concentration (IC50) is 0.5 to 5 µM.
